Values after ≈ are worked out from the molar mass of the structure shown. Active and inactive are the calls of the source. The rule behind the calls is not given here.

The test system of assay [1] is Aedes aegypti. Put plainly: Insecticidal activity against female adult Aedes aegypti fed on CPDA-1+ATP assessed as biting deterrence activity at 25 nmol/cm2 by six-celled K & D module bioassay. The assay is classed as functional.
The next assay has as its system Fusarium oxysporum. Briefly: Antifungal activity against Fusarium oxysporum assessed as growth inhibition at 0.3 to 30 uM after 48 to 72 hr by 96-well microdilution broth assay. The assay is classed as functional, organism-based. In general terms: Dilution methods test growth across graded concentrations, often in twofold steps.
The subject of a further assay is Phomopsis obscurans. Put plainly: Antifungal activity against Phomopsis obscurans assessed as growth inhibition at 30 uM after 144 hr by 96-well microdilution broth assay. The settings on record: Paraphomopsis obscurans, read-out: GI. The assay is classed as functional.
The subject of a further assay is Botrytis cinerea. Put plainly: Antifungal activity against Botryotinia fuckeliana assessed as growth inhibition at 0.3 to 30 uM after 48 to 72 hr by 96-well microdilution broth assay. The assay is classed as functional, organism-based.
For assay [2], the system named is Colletotrichum gloeosporioides. Briefly: Antifungal activity against Colletotrichum gloeosporioides assessed as growth inhibition at 0.3 to 30 uM after 48 to 72 hr by 96-well microdilution broth assay. The assay is classed as functional, organism-based.
For the next assay, the system named is Colletotrichum fragariae. Briefly: Antifungal activity against Colletotrichum fragariae assessed as growth inhibition at 0.3 to 30 uM after 48 to 72 hr by 96-well microdilution broth assay. The assay is classed as functional, organism-based.
The test system of a further assay is Colletotrichum acutatum. Put plainly: Antifungal activity against Colletotrichum acutatum assessed as growth inhibition at 0.3 to 30 uM after 48 to 72 hr by 96-well microdilution broth assay. The assay is classed as functional, organism-based.
The subject of the next assay is Diaporthe ampelina. Briefly: Antifungal activity against Diaporthe ampelina assessed as growth inhibition at 30 uM after 144 hr by 96-well microdilution broth assay. The assay is classed as functional. The settings on record: read-out: GI.
Assay [3] relates to Aedes aegypti. Briefly: Insecticidal activity against first-instar larval stage of Aedes aegypti assessed as mortality after 48 hr. The assay is classed as functional.
Assay [4] concerns Aedes aegypti. Put plainly: Insecticidal activity against first-instar larval stage of Aedes aegypti assessed as mortality at 1.6 ppm after 48 hr. The assay is classed as functional.
Assay [5] concerns Aedes aegypti. Briefly: Insecticidal activity against first-instar larval stage of Aedes aegypti assessed as mortality after 24 hr. The assay is classed as functional.
In assay [6] the test system is Aedes aegypti. Briefly: Insecticidal activity against first-instar larval stage of Aedes aegypti assessed as mortality at 0.8 ppm after 48 hr. The assay is classed as functional.
Assay [7] deals with Aedes aegypti. Put plainly: Insecticidal activity against first-instar larval stage of Aedes aegypti assessed as mortality at 1.6 ppm after 24 hr. The assay is classed as functional, organism-based.
The subject of assay [8] is Aedes aegypti. Briefly: Insecticidal activity against first-instar larval stage of Aedes aegypti assessed as mortality at 25 ppm after 24 hr. The assay is classed as functional.
Assay [9] deals with Aedes aegypti. Briefly: Insecticidal activity against first-instar larval stage of Aedes aegypti assessed as mortality at 0.8 ppm after 24 hr. The assay is classed as functional, organism-based.
The test system of assay [10] is Aedes aegypti. Put plainly: Insecticidal activity against first-instar larval stage of Aedes aegypti assessed as mortality at 50 ppm after 24 hr. The assay is classed as functional.
For assay [11], the system named is Aedes aegypti. Put plainly: Insecticidal activity against first-instar larval stage of Aedes aegypti assessed as mortality at 100 ppm after 24 hr. The assay is classed as functional.

With `COc1ccc(/C=N\NC(=O)CCC2CCCCC2)cc1`, the Activity in the assay with Aedes aegypti [1] was 22%. Besides, the “growth inhibition (GI)” value (in the assay on Fusarium oxysporum; with Botrytis cinerea; in assay [2]; in the assay on Colletotrichum fragariae; in the assay with Colletotrichum acutatum) was “inactive” each time. Also, in the assay with Phomopsis obscurans, the inhibition of growth at 30 µM stood at 74.1%.

Consider `O=C(CCC1CCCCC1)N/N=C\c1ccc(F)cc1`, for which the inhibition of growth at 30 µM with Diaporthe ampelina turned out to be 83.6%; with Phomopsis obscurans it was 86.9%. For the same molecule, the “growth inhibition (GI)” value (in the assay with Fusarium oxysporum; in the assay with Botrytis cinerea; in [2]; in the assay on Colletotrichum fragariae; in the assay on Colletotrichum acutatum) was “inactive” in each case.

Consider `CN(C)c1ccc(/C=N\NC(=O)CCC2CCCCC2)cc1`, for which the Activity with Aedes aegypti [1] stood at 22%. The “growth inhibition (GI)” value (with Fusarium oxysporum; in the assay with Botrytis cinerea; in assay [2]; with Colletotrichum fragariae; with Colletotrichum acutatum) was “inactive” throughout.

On to `CCN(CC)C(=O)c1cccc(C)c1` [DIETHYLTOLUAMIDE], for which, in the assay with Aedes aegypti [1], the Activity is listed as 80%.

For the molecule `Cc1ccc(/C=N\NC(=O)CCC2CCCCC2)cc1`, the Activity in the assay on Aedes aegypti [1] amounted to 22%. The “growth inhibition (GI)” value (in the assay on Fusarium oxysporum; in the assay on Botrytis cinerea; in assay [2]; with Colletotrichum fragariae; in the assay on Colletotrichum acutatum) was “inactive” throughout. For the same molecule, the inhibition of growth at 30 µM in the assay on Phomopsis obscurans worked out at 86.7%.

Turning to `O=C(CCC1CCCCC1)N/N=C\c1ccc(Cl)cc1`, in the assay with Aedes aegypti [1], the Activity is greater than 50%. Moreover, the “growth inhibition (GI)” value (in the assay on Fusarium oxysporum; in the assay on Botrytis cinerea; in assay [2]; in the assay on Colletotrichum fragariae; in the assay with Colletotrichum acutatum) was “inactive” each time.

As usually defined, the mortality is the share of the test organisms that died. With `CC(C)c1ccc(/C=N\NC(=O)CCC2CCCCC2)cc1`, the LD90 was found to be 19.1 ppm with Aedes aegypti [3] and 297.8 ppm in the assay on Aedes aegypti [5]. Besides, the LC50 stood at 4.35 µg/mL (≈ 14.5 µM) in the assay with Aedes aegypti [3] (Aedes aegypti, Instar larval stage, 48 h, read-out: LD50 (the source's name)) and 57.4 µg/mL (≈ 191 µM) in the assay with Aedes aegypti [5] (Aedes aegypti, Instar larval stage, 24 h, read-out: LD50 (the source's name)). In addition, the mortality at 1.6 ppm in the assay with Aedes aegypti [4] was 14.7%. Moreover, in the assay on Aedes aegypti [6], the mortality at 0.8 ppm amounted to 4%. For the same molecule, the outcome in the assay on Aedes aegypti [7] and in the assay on Aedes aegypti [9] was inactive. Moreover, the mortality at 25 ppm in the assay with Aedes aegypti [8] was 30%. Further, the mortality at 50 ppm in the assay on Aedes aegypti [10] was found to be 70%. In addition, the mortality at 100 ppm in the assay on Aedes aegypti [11] came out at 80%. In addition, the Activity with Aedes aegypti [1] was 22%. Besides, the inhibition of growth at 30 µM is 94% with Diaporthe ampelina and 99.5% with Phomopsis obscurans. In addition, the “growth inhibition (GI)” value (with Fusarium oxysporum; with Botrytis cinerea; in [2]; with Colletotrichum fragariae; in the assay with Colletotrichum acutatum) was “inactive” in each case.

`O=C(CCC1CCCCC1)N/N=C\c1ccc(Br)cc1`: in the assay with Aedes aegypti [1], the Activity is greater than 50%. Further, the “growth inhibition (GI)” value (in the assay on Fusarium oxysporum; with Botrytis cinerea; in assay [2]; in the assay on Colletotrichum fragariae; in the assay on Colletotrichum acutatum) was “inactive” throughout.

Take `O=C(CCC1CCCCC1)N/N=C\c1ccc(O)cc1`: the Activity with Aedes aegypti [1] was found to be 22%. The “growth inhibition (GI)” value (in the assay with Fusarium oxysporum; with Botrytis cinerea; in assay [2]; in the assay on Colletotrichum fragariae; with Colletotrichum acutatum) was “inactive” each time.

`O=C1C2CC=CCC2C(=O)N1SC(Cl)(Cl)Cl` (centres undefined) [CAPTAN]: the inhibition of growth at 30 µM stood at 99.2% in the assay with Diaporthe ampelina and 100% with Phomopsis obscurans.

With `O=C(CCC1CCCCC1)N/N=C\c1ccc([N+](=O)[O-])cc1`, in the assay on Aedes aegypti [1], the Activity is reported as 22%. The “growth inhibition (GI)” value (with Fusarium oxysporum; with Botrytis cinerea; in assay [2]; with Colletotrichum fragariae; with Colletotrichum acutatum) was “inactive” throughout.

In the case of `O=C(CCC1CCCCC1)N/N=C\c1ccccc1`, the Activity in the assay with Aedes aegypti [1] is given as greater than 50%. Further, the “growth inhibition (GI)” value (in the assay with Fusarium oxysporum; with Botrytis cinerea; in assay [2]; in the assay on Colletotrichum fragariae; with Colletotrichum acutatum) was “inactive” each time.
